Results as given in publication PMC9490041, “Determinants of affinity, specificity, and phase separation in a supramodule from Post-synaptic density protein 95” (iScience, 2022).
Read-outs that look alike come from different tables or passages of the source. Ends that are not written are not given here.

Legend:
Test in all cases: FP displacement (competition) of FITC-15 AA CRIPT by library peptide, IC50 and Ki
PSG G335A (PSD-95) = conditions: for IC50: read-out: IC50 (µM), PSG G335A; for Ki: read-out: Ki (µM), PSG G335A
PDZ3 (PSD-95) = PDZ3 (PSD-95) (Homo sapiens, UniProt P78352)
PDZ3 (PSD-95), sequence (P78352 313-393 limits assumed): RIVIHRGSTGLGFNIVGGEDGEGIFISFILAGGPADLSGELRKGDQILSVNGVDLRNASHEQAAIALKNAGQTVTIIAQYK

PSG G322A G335A (PSD-95) = conditions: for IC50: read-out: IC50 (µM), PSG G322A G335A; for Ki: read-out: Ki (µM), PSG G322A G335A
PSG G322A (PSD-95) = conditions: for IC50: read-out: IC50 (µM), PSG G322A; for Ki: read-out: Ki (µM), PSG G322A
PSG (PSD-95) = conditions: for IC50: read-out: IC50 (µM), PSG
[1] = FP displacement of FITC-15 AA CRIPT probe by acetylated PSD library peptide
[2] = Ki (µM), PDZ3, FP displacement of FITC-15 AA CRIPT probe by acetylated PSD library peptide
[3] = Ki, FP displacement of 5 nM FITC-15 AA CRIPT by non-labeled acetylated peptide, room temperature, Ki from IC50, technical triplicates, PDZ3
[4] = FP displacement of FITC-15 AA CRIPT probe by acetylated PSD library peptide (P-13 to P0 plus extra N-terminal Y)
[5] = FP displacement of 5 nM FITC-15 AA CRIPT by non-labeled acetylated peptide, room temperature, Ki from IC50, technical triplicates, PSG
[6] = read-out: Ki (µM), PSG, FP displacement of FITC-15 AA CRIPT probe by acetylated PSD library peptide
[7] = FP displacement of FITC-15 AA CRIPT probe by PSD library peptide, protein PSG G335A
[8] = Ki (µM), PDZ3, FP displacement of FITC-15 AA CRIPT probe by PSD library peptide, protein PDZ3
[9] = FP displacement of FITC-15 AA CRIPT probe by PSD library peptide, protein PSG G322A G335A
[10] = FP displacement of FITC-15 AA CRIPT probe by PSD library peptide, protein PSG G322A

Molecule | IC50 (PSG G335A (PSD-95); [1]) [µM] | Ki (PSG G335A (PSD-95); [1]) [µM] | Ki (PDZ3 (PSD-95); [2]) [µM] | Ki (PDZ3 (PSD-95); [3]) [µM] | IC50 (PSG G322A G335A (PSD-95); [4]) [µM] | Ki (PSG G322A G335A (PSD-95); [1]) [µM] | IC50 (PSG G322A (PSD-95); [1]) [µM] | Ki (PSG G322A (PSD-95); [1]) [µM] | IC50 (PSG (PSD-95); [1]) [µM] | Ki (PSG (PSD-95); [6]) [µM] | IC50 (PDZ3 (PSD-95)) [µM] | also measured
CC[C@H](C)[C@H](NC(=O)[C@H](CO)NC(=O)[C@H](CCC(N)=O)NC(=O)[C@H](CCCNC(=N)N)NC(=O)[C@H](CCCCN)NC(=O)[C@H](CO)NC(=O)[C@H](CC(=O)O)NC(=O)[C@@H]1CCCN1C(=O)[C@H](Cc1ccc(O)cc1)NC(C)=O)C(=O)N[C@@H](CC(C)C)C(=O)N[C@@H](Cc1ccccc1)C(=O)N[C@@H](CO)C(=O)N[C@H](C(=O)N[C@@H](CCC(=O)O)C(=O)N[C@H](C(=O)O)C(C)C)[C@@H](C)O [BCR] | 33 | 12 | 42 | < 75 | 21 | 7 | 27 | 12 | 110 | 46 |  | Ki (PSG (PSD-95); [5]): < 75 µM
CC(=O)N[C@@H](Cc1ccc(O)cc1)C(=O)N[C@@H](CCC(=O)O)C(=O)N[C@@H](CCC(=O)O)C(=O)N[C@@H](CCC(=O)O)C(=O)N[C@@H](CC(C)C)C(=O)N[C@@H](CCC(N)=O)C(=O)N[C@@H](CC(=O)O)C(=O)N[C@@H](CO)C(=O)N[C@@H](CCCNC(=N)N)C(=O)N[C@H](C(=O)N[C@@H](Cc1ccc(O)cc1)C(=O)N[C@H](C(=O)N[C@@H](CO)C(=O)N[C@@H](CO)C(=O)N[C@@H](CC(C)C)C(=O)O)C(C)C)C(C)C [CAC1C] |  |  |  |  |  |  |  |  |  |  |  | IC50 (PSG G335A (PSD-95); [7]): 90 µM; Ki (PSG G335A (PSD-95); [7]): 32 µM; Ki (PDZ3 (PSD-95); [8]): 449 µM; IC50 (PSG G322A G335A (PSD-95); [9]): 82 µM; Ki (PSG G322A G335A (PSD-95); [9]): 28 µM; IC50 (PSG G322A (PSD-95); [10]): 99 µM; Ki (PSG G322A (PSD-95); [10]): 43 µM; IC50 (PSG (PSD-95); FP displacement of FITC-15 AA CRIPT probe by PSD library peptide, protein PSG (wild type)): 200 µM; Ki (PSG (PSD-95); read-out: Ki (µM), PSG, FP displacement of FITC-15 AA CRIPT probe by PSD library peptide, protein PSG (wild type)): 105 µM
CC(=O)N[C@@H](Cc1ccc(O)cc1)C(=O)N[C@@H](C)C(=O)N[C@@H](CO)C(=O)N[C@@H](CC(N)=O)C(=O)N[C@H](C(=O)N[C@@H](CC(N)=O)C(=O)N[C@H](C(=O)N[C@@H](CC(C)C)C(=O)N[C@@H](CC(N)=O)C(=O)N[C@@H](CCCNC(=N)N)C(=O)N[C@@H](CCCCN)C(=O)N[C@H](C(=O)N[C@H](C(=O)N1CCC[C@H]1C(=O)N[C@H](C(=O)O)C(C)C)[C@@H](C)O)[C@@H](C)O)[C@@H](C)O)[C@@H](C)O [CCG8] | 28 | 10 |  | < 75 |  |  | 15 | 6 | 116 | 49 | 19 | Ki (PSG (PSD-95); [5]): < 75 µM
CC(=O)N[C@@H](Cc1ccc(O)cc1)C(=O)N[C@@H](CO)C(=O)N[C@@H](CC(C)C)C(=O)N[C@@H](CO)C(=O)N[C@@H](CCCCN)C(=O)N[C@@H](Cc1c[nH]cn1)C(=O)N[C@@H](CCC(=O)O)C(=O)N[C@@H](CO)C(=O)N[C@@H](CCC(=O)O)C(=O)N[C@@H](Cc1ccc(O)cc1)C(=O)N[C@@H](CC(N)=O)C(=O)N[C@H](C(=O)N[C@H](C(=O)N[C@@H](CCCNC(=N)N)C(=O)N[C@H](C(=O)O)C(C)C)[C@@H](C)O)[C@@H](C)O [NETO1] | 77 | 27 | 75 | < 75 | 63 | 22 |  | 45 | 239 | 101 | 182 | 
Ac-YDSIEIYIPEAQTRL [DLGP2] |  |  |  |  |  |  |  |  |  |  | 396 | Ki (PDZ3 (PSD-95); [8]): 165 µM
Ac-YLTGAPLATSDETSI [SEM4F] | 764 | 272 |  |  | 536 | 185 | 503 | 218 | 1740 | 743 |  | 
Ac-YPPSSPTLSVSSTSL [KLH17] | 1430 | 510 |  |  | 997 | 345 | 1550 | 671 | 1590 | 679 |  | 
Ac-YQARRGKKKSGSLVL [RHOA] |  |  | 548 |  | 1320 | 457 | 834 | 362 | 2160 | 923 |  | 
